In US4162253A, “Acaricidal agents” (Pfizer Inc., priority 1975, dated 1979):

Test system: Adult Boophilus microplus
Test: Topical application test on fully engorged adult Boophilus microplus ticks; overall reduction in anticipated reproduction (eggs laid and hatching)
Type: in vivo
Conditions: Rhipicephalus microplus, read-out: In Vitro Activity (topical application) vs. Adult Boophilus microplus % Effect; for inhibition at 0.5 µg/tick: 0.5 μg/tick; for inhibition at 1 µg/tick: 1 μg/tick; for inhibition at 2 µg/tick: 2 μg/tick; for inhibition at 4 µg/tick: 4 μg/tick; for inhibition at 8 µg/tick: 8 μg/tick; for inhibition at 10 µg/tick: 10 μg/tick
Method: In one test, five freshly collected, fully engorged Boophilus microplus adult ticks are used for each acaricidal compound. Using a micro-pipette, 10 micro-liters of a solution containing 10 micro-grams of the acaricidal compound in ethanol or acetone, is applied to the dorsal surface of each of the ticks. The treated ticks are placed in weighted 1"×2" glass vials, weighted and stored at 26° C. and 80% relative humidity in plastic boxes for two weeks. The ticks are then removed from the vials and the vials weighted to give the weight of eggs laid by the ticks. Any reduction in the egg laying of the treated ticks is caculated as a percentage of the eggs laid by untreated control ticks.
The eggs are returned to the incubator for a further 3 weeks after which time the percentage of eggs hatching is estimated.
The percentage effect is calculated as the overall reduction in the anticipated reproduction of the ticks using the weight of eggs laid and the percentage of eggs hatching.
The test may be repeated using smaller amounts of the acaricidal compound for sufficiently active compounds.
The activity of many of the compounds of the Examples detailed hereinafter against the tick Boophilus microplus has been determined.

Row | SMILES | inhibition at 0.5 µg/tick | inhibition at 1 µg/tick | inhibition at 2 µg/tick | inhibition at 4 µg/tick | inhibition at 8 µg/tick | inhibition at 10 µg/tick
1 | CCCCCCCCCCCCCCCC[N+]1=C2SC(C)=C(CC)N2CCC1 [Example 1, 8-cetyl-3-ethyl-2-methyl-6,7-dihydro[5H]thiazolo[3,2-a]pyrimidinium bromide] | 24% | 59% | 99% | 100% | 100% | 100%
2 | CCCCCCCCCCCCCCC[N+]1=C2SC=C(c3ccccc3)N2CCC1 [Example 2] | – | 16% | 67% | 77% | 100% | 100%
3 | CCCCCCCCCCCCCCCC[N+]1=C2SC=C(c3ccccc3)N2CCC1 [Example 3] | 2% | 13% | 26% | 90% | 97% | 100%
4 | CCCCCCCCCCCCCC[N+]1=C2SC(C)=C(CC)N2CCC1 [Example 4] | – | – | 12% | 75% | 100% | 83%
5 | CCCCCCCCCCCCCC[N+]1=C2SC=C(C)N2CCC1 [Example 5] | – | 0% | 4% | 32% | 63% | 65%
6 | CCCCCCCCCCCCCCCCC[N+]1=C2SC=C(c3ccccc3)N2CCC1 [Example 6] | – | 7% | 43% | 79% | 98% | 100%
7 | CCCCCCCCCCCCCCCC[N+]1=C2SC(C)=C(c3ccccc3)N2CCC1 [Example 7, 8-cetyl, 2-methyl-3-phenyl-6,7-dihydro[5H]thiazolo[3,2-a]pyrimidinium bromide] | 31% | 54% | 92% | 99% | 100% | 100%
8 | CCCCCCCCCCCCCCCCCC[N+]1=C2SC=C(C)N2CCC1 [Example 8] | – | – | – | – | – | 26%
9 | CCCCCCCCCCCCCCCCC[N+]1=C2SC=C(C)N2CCC1 [Example 9] | – | – | – | – | – | 42%
10 | CCCCCCCCCCCCCCC[N+]1=C2SC=C(C)N2CCC1 [Example 10] | – | – | – | – | – | 72%
11 | CCCCCCCCCCCCCCC[N+]1=C2SC(C)=C(c3ccccc3)N2CCC1 [Example 11] | 30% | 36% | 73% | 100% | 100% | 100%
12 | CCCCCCCCCCCCCCCCCC[N+]1=C2SC(C)=C(c3ccccc3)N2CCC1 [Example 12] | 16% | 19% | 22% | 38% | 87% | 100%
13 | CCCCCCCCCCCCCC[N+]1=C2SC(C)=C(c3ccccc3)N2CCC1 [Example 13] | 0% | 6% | 21% | 99.4% | 99.9% | 100%
14 | CCCCCCCCCCCCCCCCCC[N+]1=C2SC=C(c3ccccc3)N2CCC1 [Example 14] | – | – | – | – | – | 47%
15 | CCCCCCCCCCCCCCCCC[N+]1=C2SC(C)=C(c3ccccc3)N2CCC1 [Example 15] | 11% | 9% | 29% | 99.9% | 100% | 100%
16 | CCCCCCCCCCCCCCCC[N+]1=C2SC(c3ccccc3)=CN2CCC1 [Example 16] | – | – | – | – | – | 33%
17 | CCCCCCCCCCCCCCCC[N+]1=C2SC=C(C)N2CCC1 [Example 19] | – | – | 0% | 9% | 28% | 49%
18 | CCCCCCCCCCCCCCCC[N+]1=C2SC=C(C)N2CCCC1 [Example 20, 9-cetyl-3-methyl-5,6,7,8-tetrahydro-thiazolo[3,2-a][1,3]diazepinium bromide] | 0% | 29% | 67% | 99% | 100% | 100%
19 | CCCCCCCCCCCCCCCC[N+]1=C2SC=C(c3ccccc3)N2CCCC1 [Example 21] | – | 0% | 83% | 98% | 100% | 100%

Row | SMILES | inhibition at 0.5 µg/tick | inhibition at 1 µg/tick | inhibition at 2 µg/tick | inhibition at 4 µg/tick | inhibition at 8 µg/tick | inhibition at 10 µg/tick
20 | CCCCCCCCCCCCCCCCCC[N+]1=C2SC=C(c3ccccc3)N2CCCC1 [Example 22] | – | – | – | – | – | 57%
21 | CCCCCCCCCCCCCCCC[N+]1=C2SC(C)=C(c3ccccc3)N2CCCC1 [Example 23, 9-hexadecyl-2-methyl-3-phenyl-5,6,7,8-tetrahydro-thiazolo[3,2-a][1,3]diazepinium bromide] | 6% | 60% | 98% | 100% | 100% | 100%
22 | CCCCCCCCCCCCCCC[N+]1=C2SC=C(C)N2CCCC1 [Example 24] | 13% | 48% | 70% | 97% | 100% | 100%
23 | CCCCCCCCCCCCCCCCCC[N+]1=C2SC=C(C)N2CCCC1 [Example 25] | – | 20% | 40% | 82% | 78% | 98%
24 | CCCCCCCCCCCCCCC[N+]1=C2SC=C(c3ccccc3)N2CCCC1 [Example 26, 9-Pentadecyl-3-phenyl-5,6,7,8-tetrahydrothiazolo[3,2-a][1,3]diazepinium bromide] | 14% | 12% | 43% | 61% | 92% | 99%
25 | CCCCCCCCCCCCC[N+]1=C2SC=C(C)N2CCCC1 [Example 27] | 40% | 38% | 55% | 63% | 75% | 86%
26 | CCCCCCCCCCCCCC[N+]1=C2SC=C(C)N2CCCC1 [Example 28] | – | 13% | 52% | 74% | 83% | 100%
27 | CCCCCCCCCCCCCC[N+]1=C2SC=C(c3ccccc3)N2CCCC1 [Example 29] | – | 19% | 11% | 55% | 100% | 100%
28 | CCCCCCCCCCCCCCCCC[N+]1=C2SC=C(C)N2CCCC1 [Example 30] | – | 13% | 47% | 56% | 95% | 100%
29 | CCCCCCCCCCCCC[N+]1=C2SC=C(c3ccccc3)N2CCCC1 [Example 31] | – | – | – | 0% | 52% | 100%
30 | CCCCCCCCCCCCCCCCC[N+]1=C2SC=C(c3ccccc3)N2CCCC1 [Example 32] | 0% | 12% | 66% | 94% | 95% | 100%
31 | CCCCCCCCCCCCCCCC[N+]1=C2SC(c3ccccc3)=CN2CCCC1 [Example 34] | – | – | – | – | – | 32%
32 | CCCCCCCCCCCCCCCC[N+]1=C2SC3=C(CCCC3)N2CCCC1 [Example 35, 9-hexadecyl-2,3-tetramethylene-5,6,7,8-tetrahydrothiazolo[3,2-a][1,3] diazepinium bromide] | 0% | 8% | 13% | 70% | 100% | 100%
33 | CCCCCCCCCCCCCCCC[N+]1=C2SC=CN2CCCC1 [Example 36] | – | – | – | – | – | 26%
34 | CCCCCCCCCCCC[N+]1=C2SC=C(c3ccccc3)N2CCCC1 [Example 37] | – | – | – | – | – | 87%
35 | CCCCCCCCCCCC[N+]1=C2SC=C(C)N2CCCC1 [Example 38] | – | – | – | – | – | 30%
36 | CCCCCCCCCCCCCCCC[N+]1=C2SC=C(c3ccc(F)cc3)N2CCCC1 [Example 41] | 5% | 18% | 18% | 16% | 43% | 92%
37 | CCCCCCCCCCCCCCCC[N+]1=C2SC(C)=C(c3ccccc3)N2CC1 [Example 42, 7-cetyl-2-methyl-3-phenyl--5,6-dihydro-imidazo[2,1-b]thiazolium bromide] | 6% | 52% | 50% | 90% | 100% | 100%
